Source: patent US8580486B2, “Salt having fluorine-containing carbanion structure, derivative thereof, photoacid generator, resist material using the photoacid generator, and pattern forming method” (Central Glass Company, Limited, priority 2008, dated 2013)
Structures can show the parent of a compound that is named as a salt.

Tests used:
[1] = Compatibility of PAG with resist (base resin); conditions: for Compatibility: acid generator (1.0), PGMEA (400)
[2] = Solubility in resist solvent (PGMEA); format: physicochemical; conditions: for Solubility: in propylene glycol monomethyl ether acetate (PGMEA)

Row | Compound | Compatibility ([1]; Resin 1 (40 parts by wt.)) | Compatibility ([1]; Resin 2 (40 parts by wt.)) | Compatibility ([1]; Resin 3 (40 parts by wt.)) | Compatibility ([1]; Resin 4 (40 parts by wt.)) | Solubility [2] | Compatibility ([1]; Resin 5 (40 parts by wt.)) | Compatibility with resists compared with conventional products ([1]; summary of Table 2 and Table 3, in words) | Solubility compared with existing PAG (PAG2) having an adamantane skeleton ([2]; in PGMEA, statement in words)
1 | (adamantan-1-ylmethyl)oxycarbonyl difluoromethanesulfonic acid triphenylsulfonium [PAG2, reference compound] | Good | Good | Good | Good | 0.3 parts by weight of PAG dissolved in 100 parts by weight of PGMEA | – | – | –
2 | CC(CC(S(=O)(=O)C(F)(F)F)S(=O)(=O)C(F)(F)F)OC(=O)C12CC3CC(CC(C3)C1)C2 (centres unmarked) [PAG1, 3-(1-adamantanecarbonyl)oxy 1,1-bis(trifluoromethanesulfonyl)butane triphenylsulfonium salt] | Good | Good | Good | Good | not less than 0.1 parts by weight of PAG dissolved in 100 parts by weight of PGMEA | Good | higher compatibility with resists as compared with conventional products | superior
3 | nonafluorobutanesulfonic acid triphenylsulfonium salt [PAG3, reference compound] | Good | – | – | – | – | – | – | –
